Patent publication US7429374B2, “Process for the measurement of the potency of glatiramer acetate” (Teva Pharmaceutical Industries, Ltd., priority 2001, dated 2008)

B1: Human MBP: human MBP (myelin basic protein) (protein, UniProt P02686 1-304, looked up)
Myelin basic protein: MGNHAGKRELNAEKASTNSETNRGESEKKRNLGELSRTTSEDNEVFGEADANQNNGTSSQDTAVTDSKRTADPKNAWQDAHPADPGSRPHLIRLFSRDAPGREDNTFKDRPSESDELQTIQEDSAATSESLDVMASQKRPSQRHGSKYLATASTMDHARHGFLPRHRDTGILDSIGRFFGGDRGAPKRGSGKDSHHPARTAHYGSLPQKSHGRTQDENPVVHFFKNIVTPRTPPPSQGKGRGLSLSRFSWGAEGQRPGFGYGGRASDYKSAHKGFKGVDAQGTLSKIFKLGGRDSRSGSPMARR

Tests used:
GA RS-specific T cells = experiment: In vitro potency test: IL-2 secretion by GA RS-specific LN cells, ELISA, % potency relative to GA RS; type: cell-based, female (SJLXBALB/C)F1 mice; details: for Response of GA RS-specific T cells (IL-2 secretion), in words: primary culture of LN cells from mice immunized with 250 μg GA RS in CFA; for % Potency: specificity of GA RS-specific LN cells, antigens incubated overnight
Procedure: Mice were immunized with 250 μg GA RS in CFA. GA RS was produced as described in U.S. Pat. No. 5,800,808 or PCT International Publication No. WO 00/05250. The GA RS was chosen based on the chemical and biological properties being in the midrange of Copaxone® as described above. After 9-11 days, a primary culture of LN cells was prepared, and the cells were incubated with various concentrations of GA RS and with test samples. Following 18-21 hours of incubation at 37° C. in a humidified CO2 incubator, the culture media were collected and the level of IL-2 was measured by ELISA. The T-cell response to each DS batch were tested at two concentrations (within the linear range), and the % potency of the DS batch was calculated relative to that of the GA RS batch.
The GA RS emulsion was transferred into an insulin syringe. Then, 100 μl of the emulsion (250 μg GA per mouse) were injected into four footpads of each naive mouse (about 25 μl into each footpad). The immunized mice were used for the in vitro test 9-11 days following immunization.
The UV lamp was turned on 20 minutes before commencing work in the laminar hood and turned off when work began. Prior to placing any reagents under the hood, the working surface was cleaned with a 70% ethanol solution. Enriched DCCM1 medium was prepared. The enriched DCCM1 and the RPMI medium were pre-warmed at 37° C. prior to use. The mice were sacrificed by cervical dislocation. Each mouse was placed on its back and fastened to a support platform. The abdomen was sprayed with 70% alcohol and a middle incision was made (a 2 cm-long incision was usually sufficient). The skin was intersected towards the hind legs and LN was located from the hind and forelegs. The LN was transferred into a sterile petri dish containing about 5 ml sterile RPMI medium and the LN cells were teased out by a sterile syringe plunger. The sterile syringe was used to collect the cells' suspension from the petri dish (the collection of tissue debris was avoided by using sterile needles). The cells' suspension were transferred into a 50 ml sterile tube.
The cells were centrifuged at 200×g for 10 minutes at room temperature. The cells were re-suspended to a density of 1×10^7 cells/ml with enriched DCCM1.
The in vitro bioassay was performed in a 24-well, flat-bottomed tissue culture test plate at a final volume of 1 ml.
About 10-20 mg of, GA DS from the batch to be tested was weighed accurately and dissolved with ddH2O to 1.2 mg/ml. The OD minus blank of the solution was measured at 275 nm. The OD of the sample was adjusted to approx. 1.03 with ddH2O to obtain a stock solution of 1 mg/ml of GA. The stock solution of 100 μg/ml was prepared with enriched DCCM1 and filtered through a 0.2μ cellulose acetate filter. The stock solution was diluted to 10 and 20 μg/ml as described in Table 2 for the RS batch.
0.5 ml of each GA RS dilution, thus the final concentrations of GA RS in the wells were 25, 15, 10, 5, 2.5 and 1 μg/ml.
0.5 ml of each sample dilution, thus the final concentrations of the test sample in the well were 5 and 10 μg/ml.
The density of the cells was changed depending upon their response to GA. The cultures were kept at 37° C. in a humidified 5% CO2 incubator for 18-21 hrs. The plate was centrifuged at 200×g for 10 minutes at room temperature. The supernatants were collected into cryotubes. The supernatants were divided into working aliquots to avoid repeated freezing/thawing of the samples. The supernatants were stored at −20° C. for up to one week. The hood was cleaned with 70% ethanol solution and dried with Kim wipes. The gloves were removed and the hands were immediately washed with disinfectant.
All samples were tested in triplicate. […]

[1] = system: exacerbating-remitting multiple sclerosis; details: daily subcutaneous injections (Johnson, 1987); cited from earlier work
EAE = details: 250 μg/mouse of GA in CFA; this mouse strain
Procedure: The control group in this experiment was injected with CFA alone. Ten days following immunization, LN cells were removed from the both groups of mice.

[2] = system: experimental autoimmune encephalomyelitis (EAE); details: various animal species (Lando et al., 1979; Aharoni, 1993); cited from earlier work

Row | Molecule | Response of GA RS-specific T cells (IL-2 secretion), in words (GA RS-specific T cells) | % Potency (GA RS-specific T cells) | progression of disability [1] | relapse rate [1] | blocking of EAE (EAE) | suppression of EAE [2]
1 | OC[C@@H](O)[C@@H](O)[C@H](O)[C@H](O)CO [mannitol] | did not affect or interfere | – | – | – | – | –
2 | MBP pp.87-99: the MBP immunodominant peptide pp. 87-99 (an encephalitogenic peptide) (SRPHLIRLFSRDA; UniProt P02686 87-99, looked up, fragment) | did not respond | 0% | – | – | – | –
3 | L-glutamic acid polymer with L-alanine, L-lysine and L-tyrosine, acetate (salt) [GA] | – | – | slow progression of disability | reduce the relapse rate | at least 80% | suppress
4 | Lysozyme: a non-relevant basic protein | not recognized | 0% | – | – | – | –
5 | B1 | did not respond | 0% | – | – | – | –
